Experimental findings from patent publication US8193179B2, “3-amino-6-(1-amino-ethyl)-tetrahydropyran derivatives” (Actelion Pharmaceuticals, Ltd, priority 2007, dated 2012) are described below.

Molecules are shown by their SMILES. Converted amounts (≈) assume the structure as drawn. Like-named read-outs stand apart in the source and are kept apart here.

What all share (assay type): cell-based
In one assay the test system is P. aeruginosa A1124. Description: MIC by microdilution in cation-adjusted Mueller-Hinton Broth, P. aeruginosa A1124. To be noted: strain A1124, test medium pH 7.2-7.3; for MIC: Pseudomonas aeruginosa. As for the experimental part: (§1) These assays have been performed following the description given in “Methods for dilution Antimicrobial Susceptibility Tests for Bacteria that Grow Aerobically, 4th ed.; Approved standard: NCCLS Document M7-A4; National Committee for Clinical Laboratory Standards: Villanova, Pa., USA, 1997”. Minimal inhibitory concentrations (MICs; mg/l) were determined in cation-adjusted Mueller-Hinton Broth (BBL) by a microdilution method following NCCLS guidelines (National Committee for Clinical Laboratory Standards. Methods for Dilution Antimicrobial Susceptibility). The pH of the test medium was 7.2-7.3.
For orientation: In broth dilution the organism is exposed to a series of concentrations in liquid medium.

For the next assay, the system named is A. baumanii T6474. The assay can be described thus: MIC by microdilution in cation-adjusted Mueller-Hinton Broth, A. baumanii T6474. To be noted: strain T6474, test medium pH 7.2-7.3; for MIC: Acinetobacter baumannii. As for the experimental part: as §1
In a further assay the test system is S. aureus A798. The assay can be described thus: MIC by microdilution in cation-adjusted Mueller-Hinton Broth, S. aureus A798. The note with it: strain A798, test medium pH 7.2-7.3; for MIC: Staphylococcus aureus. As for the experimental part:
as §1

[1] abbreviates: read-out: MIC P. aeruginosa A1124 (further typical results, comparison with WO 2006/032466).
[2] abbreviates: read-out: MIC P. aeruginosa A1124.

Turning to `COc1ccc2nccc(C[C@H](N)[C@@H]3CC[C@@H](NCc4ccc5c(n4)NC(=O)CS5)CO3)c2n1` [Example 8, 6-({(3R,6S)-6-[(1S)-1-amino-2-(6-methoxy-[1,5]naphthyridin-4-yl)-ethyl]-tetrahydro-pyran-3-ylamino}-methyl)-4H-pyrido[3,2-b][1,4]thiazin-3-one], the MIC in the assay with P. aeruginosa A1124 (setting [1]) was found to be 2 mg/L (≈ 4.16 µM).

Take `COc1ccc2nccc(CC(N)[C@@H]3CC[C@@H](NCc4ccc5c(n4)NC(=O)CS5)CO3)c2c1` (mixture of isomers) [Example 4, 6-({(3R,6S)-6-[(1RS)-1-amino-2-(6-methoxy-quinolin-4-yl)-ethyl]-tetrahydro-pyran-3-ylamino}-methyl)-4H-pyrido[3,2-b][1,4]thiazin-3-one]: in the assay on P. aeruginosa A1124 (setting [1]), the MIC was 8 mg/L.

Take `COc1ccc2nccc(C[C@H](N)[C@@H]3CC[C@@H](NCc4ccc(C)c(F)c4)CO3)c2n1` [Example 19]: the “MIC A. baumanii T6474” value in the assay on A. baumanii T6474 was determined as 0.5 mg/L (≈ 1.18 µM). In addition, in the assay on P. aeruginosa A1124, the “MIC P. aeruginosa A1124” value was found to be 2 mg/L (≈ 4.71 µM). For the same compound, the “MIC S. aureus A798” value in the assay with S. aureus A798 is recorded as “≦0.031 mg/l”.

In the case of `COc1ccc2ncc(F)c(CC(N)[C@@H]3CC[C@@H](NCc4ccc5c(n4)NC(=O)CO5)CO3)c2n1` (mixture of isomers) [Example 15, 6-({(3R,6S)-6-[(1RS)-1-amino-2-(3-fluoro-6-methoxy-[1,5]naphthyridin-4-yl)-ethyl]tetrahydro-pyran-3-ylamino}-methyl)-4H-pyrido[3,2-b][1,4]oxazin-3-one], the values for the MIC against A. baumanii T6474, with P. aeruginosa A1124 (setting [2]) and against S. aureus A798 were at most 0.031 mg/L, 0.125 mg/L and at most 0.031 mg/L, respectively.

Regarding `NC(Cc1ccnc2ccc(F)cc12)[C@@H]1CC[C@@H](NC/C=C/c2cc(F)ccc2F)CO1` (mixture of isomers) [Example 3, {(3R,6S)-6-[(1RS)-1-amino-2-(6-fluoro-quinolin-4-yl)-ethyl]-tetrahydro-pyran-3-yl}-[(E)-3-(2,5-difluoro-phenyl)-allyl]-amine], the MIC in the assay with A. baumanii T6474 was 0.5 mg/L; in the assay with P. aeruginosa A1124 (setting [2]) it was 0.5 mg/L; in the assay with S. aureus A798 it was 0.25 mg/L.
